The subject of one series is ABAE cells. As to the kind of experiment: Induction of PS exposure, 125I-annexin V binding. Format: cell-based, bovine. The settings on record: ABAE and bEnd.3 cells, immunohistochemically. On the procedure: All reagents were diluted in medium containing 10% serum and incubated with the cells at 37° C. for 24 h.
To study the effect of hypoxia, cells were seeded on 24 well plates and were incubated in a humidified normoxic atmosphere (21% O2, 5% CO2) for 48 h before being transferred to a humidified hypoxic atmosphere (1% O2, 5% CO2, 94% N2) in a sealed chamber (Billups Rothenberg Inc., Del Mar, Ca). Cells were incubated in a hypoxic chamber for 24 h at 37° C. and were then returned to a normoxic environment for 4 h at 37° C. The cells were compared to a parallel culture from an identical passage, seeded on the same day and maintained entirely under normoxic conditions. In some studies, IL-1α (10 ng/ml) and TNFα (20 ng/ml) were added to the medium before transfer to the hypoxic chamber.
After treatment with the reagents described above, treated and control cells were incubated with 7.1 pmoles of ^125I-labeled annexin V (200 μl/well) in the binding buffer. After 2 h incubation at room temperature, cells were washed extensively and dissolved in 0.5 M of NaOH. The entire volume of 0.5 ml was transferred to plastic tubes and counted in a gamma counter. Non-specific binding was determined in the presence of 5 mM EDTA and was subtracted from experimental values. The results were expressed as net pmoles of cell-bound annexin V, normalized per 1×10^6 cells.
Maximal binding of annexin V was determined on cells simultaneously treated with actinomycin D and TNFα (50 ng/ml of each component). As has been previously reported, these agents cause apoptosis and PS exposure in 90-100% of endothelial cells (Lucas et al., 1998). Basal binding of ^125I-annexin V to untreated cells was determined in the presence of medium with 10% serum. The amount of ^125I-annexin V that bound to the untreated cultures was subtracted from that in the treated cultures. Exposure of PS was calculated according to the following formula: cell-bound annexin V (pmoles) under experimental conditions divided by maximal annexin V binding (pmoles), multiplied by 100. Each study was performed in duplicate and was performed at least three times. Mean values were calculated. The SE of the mean values from three separate experiments was less than 5%.

Another series deals with bEnd.3 endothelial cells. As to the kind of experiment: H2O2 induction of PS, anti-PS staining and Trypan Blue exclusion.
Series [1] concerns drug-resistant breast tumors. The series can be described thus: 3G4 and cisplatin against drug-resistant breast tumors. Format: in vivo, mouse. The settings on record: treated after day 20. The text has this: Mice were inoculated with drug-resistant breast tumors and treated after day 20.
In the next series the test system is HUVEC and HMVEC. The series can be described thus: Docetaxel-induced PS exposure on endothelial cells, FACS. Format: cell-based, human. The procedure: The induction of PS exposure on endothelial cells by subclinical concentrations of docetaxel was examined in vitro by FACS analysis. […] […] Docetaxel incubations for 48 and 72 hrs were also conducted.
The subject of a further series is tumor vessels. As to the kind of experiment: Docetaxel-induced PS exposure on tumor vessels. The class given is in vivo, mouse. To be noted: after docetaxel treatment; 35% before. The text has this:
In such studies, docetaxel treatment of mice increased the percentage of tumor vessels that expose anionic phospholipids from 35% to 60%. No induction of PS was observed on vessels in normal tissues even after systemic treatment with docetaxel.

In series [2] the test system is 3LL, Colo26, MDA-MB-435, B16, Meth A cells. As to the kind of experiment: Docetaxel-induced PS exposure on tumor cell lines, FACS. The class given is cell-based, mouse, human. The settings on record: 10 nM, 24 hrs. The procedure: The in vitro induction of PS exposure by subclinical concentrations of docetaxel was also examined by FACS analysis using a panel of tumor cell lines. Mouse lewis lung carcinoma 3LL, mouse colon carcinoma Colo26 and human breast cancer MDA-MB-435 cells were treated with 10 nM of docetaxel for 24 hrs and examined by FACS. […] Docetaxel incubations for 48 and 72 hrs were also conducted.

For series [3], the system named is Pan02 mouse pancreatic adenocarcinoma. The series can be described thus: 3G4 and gemcitabine, pancreatic cancer. The settings on record: 3G4 100 μg, gemcitabine 3.5 mg; day 22. Format: in vivo. The procedure:
Pan02 mouse pancreatic adenocarcinoma cells were injected into the pancreas of immunocompetent C57BL/6 mice. Treatment was started on day 5 after tumor cell injection. […] Gemcitabine is a pyrimidine anti-metabolite. The animals were sacrificed at day 22 after tumor cell injection, and the tumor weight determined.

The next series has as its system WiDr (colon carcinoma). As to the kind of experiment: WiDr colon carcinoma model. The class given is in vivo, mouse. To be noted: 100 μg 3×/week from day 5; preliminary study. The procedure:
Treatment was started on day 5, when the tumors were small (10 mice per group). 100 μg of each antibody was injected 3×/week and tumor growth monitored.

Series [4] can be described thus: Administration to atherosclerotic rabbits. The settings on record: rabbit, in vivo.
Series [5] concerns syngeneic prostatic tumors. As to the kind of experiment: Bavituximab in rats with syngeneic prostatic tumors. To be noted: rat, in vivo.
Series [6] has as its system ABAE cells with exposed PS. The series can be described thus: Live-cell binding assay on LPC-treated endothelial cells. The class given is cell-based, bovine. On the procedure:
Adult bovine aortic endothelial (ABAE) cells were maintained in DMEM supplemented with 10% FBS and 2 mM L-glutamine. ABAE cells were removed from subconfluent cultures by brief exposure to 0.25% trypsin/0.02% EDTA, and 8-well chamber slides were seeded with 2×10^4 cells/well. Following overnight culture, cells were washed gently with PBS and treated with 200 μM lysophosphatidylcholine (LPC) to induce PS exposure.
PS exposure was determined by immunofluorescence staining. Cells were washed thoroughly in PBS, fixed in 4% paraformaldehyde (w/v), and incubated with a biotin-conjugated anti-mouse secondary antibody. Next, cells were incubated with FITC-conjugated streptavidin (Jackson Immunoresearch) to detect antibody binding. Cells were then permeablized with 0.1% Triton-X100 in PBS and counterstained with Texas Red-conjugated phalloidin (Molecular Probes, Eugene, Oreg.), and 4′, 6-diamidino-2-phenylindole (DAPI; Molecular Probes). Images were captured using a Coolsnap digital camera (Photometrics, Tucson, Ariz.) mounted on a Nikon microscope and processed with MetaVue software (Universal Imaging Corporation, Downingtown, Pa.).
The area of antibody binding was determined using MetaVue image analysis software, which is able to quantify the number of illuminated pixels in an image. Images of FITC fluorescence were used to quantify antibody binding. Corresponding images of DAPI fluorescence were used to normalize the FITC images for the number of cells present in the field. A small FITC/DAPI ratio indicates a small antibody binding area, whereas a large FITC/DAPI ratio indicates a large binding area. The FITC/DAPI ratios were used to determine increases or decreases in antibody binding area relative to a basal amount of antibody binding under the selected conditions. Five images at 200× magnification were used for each analysis. Data are presented as average relative FITC/DAPI ratios with error bars representing the standard deviation.
Cells were then washed, fixed, and stained with fluorescent markers to visualize binding of antibody to the cell surface.

The nature of a further series: Monkey safety studies. To be noted: repeat dosing. The class given is in vivo, cynomolgus monkeys. The procedure:
This is 100 times the calculated therapeutic dose ([…]).

Series [7] is described as follows: Binding of ch3G4 and 2aG4 to phospholipid-coated ELISA plates. The settings on record: vs murine 3G4.
The next series deals with T1, human β2GPI (Homo sapiens, UniProt P02749).
T1 construct: Human β2GPI (hβ2GP1) was purified from human plasma essentially as described previously; from tissue; host or cells: pooled human plasma
T1 sequence (P02749 20-345): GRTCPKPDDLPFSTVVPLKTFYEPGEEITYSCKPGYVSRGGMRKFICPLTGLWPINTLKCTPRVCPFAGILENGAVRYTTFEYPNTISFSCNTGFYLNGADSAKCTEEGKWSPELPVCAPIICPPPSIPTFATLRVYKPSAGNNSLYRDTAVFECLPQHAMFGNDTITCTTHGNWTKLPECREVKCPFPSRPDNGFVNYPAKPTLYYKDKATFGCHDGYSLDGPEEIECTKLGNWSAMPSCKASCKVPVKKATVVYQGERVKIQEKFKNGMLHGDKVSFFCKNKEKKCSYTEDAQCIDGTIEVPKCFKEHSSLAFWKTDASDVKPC
The series can be described thus: Anti-hβ2GPI ELISA. The class given is binding. On the procedure: The assay was performed as described above with the following modifications. hβ2GPI, nicked hβ2GPI, or recombinant hβ2GPI peptides were coated on 96-well Immunlon 2HB microtiter plates overnight at a concentration of 10 μg/ml. Plates were then blocked in 1% OVA for 1 hr. at room temperature. […] Plates were incubated for 1 hr. at 37° C. and antibody binding was detected. All ELISA studies were performed at least three times.
In general terms: An ELISA detects its analyte on a solid surface through an enzyme-linked reagent.

The test system of series [8] is U937 cells infected with Vaccinia virus. The class given is cell-based. To be noted: m.o.i of 2, 2 days.
The nature of series [9]: Phospholipid specificity ELISA. The class given is binding. On the procedure:
The specificity of the antibodies was determined by ELISA using plates coated with the following phospholipids: PS, phosphatidylserine; PE, phosphatidylethanolamine; PI, phosphatidylinositol; PA, phosphatidic acid; PG, phosphatidylglycerol; PC, phosphatidylcholine; CL, cardiolipin; and SM, sphingomyelin.

Series [10] is described as follows: Serum dependence of binding to PS. On the procedure:
The serum dependence or independence of the antibodies is also set forth in Table 2 (see also, Example XXX).
The 1B9, 2G7 and 7C5 antibodies behave essentially the same. These antibodies recognize only PS and require serum or serum proteins for binding to PS. The binding of 1B9, 2G7 and 7C5 to various phospholipids in the present example was assayed only in the presence of 10% bovine serum, whereas binding of the other antibodies was tested either in the absence or in the presence of serum.

The subject of a further series is MDA-MB-435 breast tumors. The series can be described thus: 3G4 and chimeric 3G4 tumor treatment. Format: in vivo, mouse. The settings on record: MD-MBA-435s; IP 800 μg day 15, 200 μg every two to three days, 400 μg day 35. On the procedure: Tumors were also established using MD-MBA-435s cells and treated as described above. […] The treatment of large L540 tumors, MDA-MB-231 and MD-MBA-435s tumor cells for 60 days was also effective. The antibodies caused tumor vascular injury, thrombosis and necrosis and retarded tumor growth, with no evidence of toxicity.
MD-MBA-435s lucerifase cells were obtained from Dr. Angels Sierra Jimenez, Barcelona, Spain and were grown in 10% DMEM. Mice were injected with tumor cells as described as above, and at 2 weeks post injection, the tumors were measured and the volume recorded. […] Treatment was initiated by IP injection (800 μg) at day 15 and continued with injections of 200 μg every two to three days until the final injection of 400 μg at day 35. Tumor volumes and mouse body weights were measured on injection days. Mice were sacrificed and perfused with saline for 12 minutes. The organs and tumor were removed, snap-frozen in liquid nitrogen and the tumor sectioned for immunohistochemistical analysis.
Groups of 8-10 female SCID mice were injected subcutaneously with 2×10^7 L540 cells or orthotopically with 1×10^7 MDA-MB-435 or MDA-MB-231 cells. BALB/c mice were injected subcutaneously with 1×10^6 Meth A cells. […] Animals were monitored three times a week for tumor size and body weight. […]

The subject of another series is mCMV RVG102. As to the kind of experiment: Survival of mCMV-infected mice. The class given is in vivo, mouse. To be noted: past 90 days post infection; untreated 25%.

One may read the cell viability as the share of living cells, or the viability signal relative to a control.

In the case of `OO` [Hydrogen peroxide, hydrogen peroxide], the “cells that bound biotinylated annexin V” value with ABAE cells was “More than 70%”. Further, the cell viability is 50-60% in the series on bEnd.3 endothelial cells (H2O2 at high concentrations) and 95% with bEnd.3 endothelial cells (low levels of H2O2, identical to untreated control).
For the molecule `N.N.[Cl][Pt][Cl]` [cisplatin, reference compound], the anti-tumor response result in [1] was “tumor growth was slowed”.
Consider `CC(=O)O[C@@]12CO[C@@H]1C[C@H](O)[C@@]1(C)C(=O)[C@H](O)C3=C(C)[C@@H](OC(=O)[C@H](O)[C@@H](NC(=O)OC(C)(C)C)c4ccccc4)C[C@@](O)([C@@H](OC(=O)c4ccccc4)[C@H]21)C3(C)C` [docetaxel], for which the “externalization of anionic phospholipids on HUVEC” value with HUVEC and HMVEC (20 pM) is given as “caused anionic phospholipids to be externalized without inducing apoptosis”. In addition, the “3G4 binding vs untreated cells” value in the series with HUVEC and HMVEC (10 nM, 24 hrs) is listed as “significant increase in 3G4 binding”; in series [2], “significant increase in 3G4 binding”. In addition, the “tumor vessels that expose anionic phospholipids” value in the series on tumor vessels was 60%.
As to `Nc1ccn([C@@H]2O[C@H](CO)[C@@H](O)C2(F)F)c(=O)n1` [gemcitabine, reference compound], in series [3], the “anti-tumor effect (tumor weight)” value is recorded as “significant anti-tumor effect”.
As to “ch3G4: Human-mouse chimeric (human IgG1) version of 3G4, termed bavituximab”, the tumor growth result in the series with WiDr (colon carcinoma) is given as “slowed tumor growth to essentially the same degree”. Also, the “safety in atherosclerotic rabbits” value is reported as “did not exacerbate aortic atherosclerotic lesions” in series [4] (listed as chimeric version of the 3G4 antibody) and “shown to be safe” in [4] (listed as humanized 3G4 antibody). In [5], the “tumor homing of radiolabeled antibody” value is “shown to home to syngeneic prostatic tumors in rats”. Further, the tumor perfusion result in [5] is recorded as “Reduced tumor perfusion”. Besides, the “binding to LPC-treated ABAE cells” value is “widespread binding” in series [6] (10% MS plus purified hβ2GPI) and “no antibody binding was detected” in series [6] (10% MS, no hβ2GPI). The “No adverse effect level (NOAEL)” value in the series “Monkey safety studies” is listed as “approximately 10 mg/kg/week”. The “binding to phospholipid-coated ELISA plates” value in series [7] is listed as “bound at least as did well as the murine 3G4”. Also, in the series with human β2GPI, the “binding to nicked hβ2GPI coated on microtiter plates” value is reported as “binds nicked hβ2GPI as well as hβ2GPI”. For the same molecule, the “FACS shift vs uninfected cells” value in [8] is listed as “significant shift”. The “Relative Strength of Reactivity on ELISA” value in series [9] was “PS = PA = PI = PG = CL >> PE”. In addition, in [10], the “Serum cofactor?” value was “Yes”. Also, in the series with MDA-MB-435 breast tumors, the “tumor growth vs control” value is given as “effectively retarded tumor growth”. In the series with mCMV RVG102, this molecule returned a survival of 80%.
